Patent US11046714B2, “2,2-difluorodioxolo A2A receptor antagonists” (Merck Sharp & Dohme Corp., priority 2013, dated 2021)

Target: human A2A receptor (Homo sapiens (Human), UniProt P29274)
Test: competition binding assay using Scintillation Proximity technology
Conditions: membranes from CHO-K1 cells expressing the human A2a receptor; 2.0 nM tritiated compound; Cheng-Prusoff
Description: The utility of the compounds in accordance with the present invention as A2A receptor antagonists may be readily determined without undue experimentation by methodologies well known in the art, including by a competition binding assay using Scintillation Proximity technology. Briefly, membranes from CHO-K1 cells expressing the human A2A receptor are incubated with a test compound at various concentrations, e.g., ranging from 3000 nM to 0.15 nM, in a reaction mixture also containing a tritiated form of 5-amino-7-[2-phenethyl]-2-(furan-2-yl)-7H-pyrazolo[4,3-e][1,2,4]triazolo[1,5-c]pyrimidine (the tritiated compound) and wheatgerm agglutin-coated yttrium silicate SPA beads at room temperature. The beads are then allowed to settle to the bottom of the wells, after which the membrane-associated radioactivity is determined by scintillation counting in a microplate reader. Ki values can be determined using the Cheng-Prusoff equation.
Thus, 1.0 μg of membranes from CHO-K1 cells expressing the human A2a receptor were incubated with a compound of the invention at concentrations ranging from 3000 nM to 0.15 nM in a reaction mixture also containing 2.0 nM of a tritiated form of 5-amino-7-[2-phenethyl]-2-(furan-2-yl)-7H-pyrazolo[4,3-e][1,2,4]triazolo[1,5-c]pyrimidine (the tritiated compound) and 100 μg of wheatgerm agglutin-coated yttrium silicate SPA beads for one hour at room temperature with agitation. The beads were then allowed to settle to the bottom of the wells for 1 hr, after which the membrane-associated radioactivity was determined by scintillation counting in a TopCount microplate reader. Ki values were determined using the Cheng-Prusoff equation.
Summary of Materials and Methods Used in A2a Activity Determination:
• Membranes from CHO-K1 cells expressing the human Adenosine2A receptor (Perkin-Elmer #RBHA2AM400UA). • The tritiated compound was prepared according to published methods. • Wheatgerm agglutinin-coated yttrium silicate SPA beads (GE Healthcare #RPNQ0023). Dilute to 25 mg/ml in Assay Buffer. • Assay Buffer: Dulbecco's calcium and magnesium free phosphate buffered saline+10 mM MgCl2 • Adenosine deaminase (ADA) from calf intestine, 10 mg/2 ml (Roche #10 102 105 001). • DMSO • A2a antagonist standard (9-chloro-1-(2-furanyl)-[1,2,4]triazolo[1,5-c]quinazolin-5-amine from Tocris Bioscience) Compound Dilution • Make eight 1:3 serial dilutions in 100% DMSO from a 3 mM compound stock. • Transfer 50 nL of compound into a 384-well OptiPlate (Perkin Elmer). • Typically, final concentrations of compound used in the assay ranged from 3000 nM to 0.152 nM. Radioisotope • Dilute a solution of the tritiated compound to 5.0 nM in assay buffer. This is a 2.5× solution. The final concentration in the assay is 2.0 nM. Calculate the concentration by counting two 5 μL aliquots. Membrane Preparation • Use 1.0 μg of membrane/well. Dilute membranes to 33 μg/mL in assay buffer. Treat with 20 μg/mL ADA for 15 minutes at room temperature to degrade endogenous adenosine. Membrane-Bead Mixture • Use 100 μg/well wheatgerm agglutinin-coated yttrium silicate SPA beads. • Mix ADA-treated membranes and SPA beads together for 30 min prior to assay. Assay Assembly • To the Perkin-Elmer Optiplate-384 containing the compound titration add 20 μL of 2.5× solution of the tritiated compound and 30 μL of the membrane-bead mixture. Incubate for one hour at room temperature with agitation. • Include total binding (assay buffer+1% DMSO) and non-specific binding (CGS 15943, 1 μM) wells. Counting • Allow the beads to settle for one hour. • Count in TopCount. Calculations • A curve fitting program (i.e., Prism, Activity Base, Chemcart) is used to determine the EC50. The Ki value is calculated using the Cheng-Prusoff equation. Ki=EC50/(1+(radioligand concentration/Kd))

Chain of human A2A receptor (P29274 whole entry): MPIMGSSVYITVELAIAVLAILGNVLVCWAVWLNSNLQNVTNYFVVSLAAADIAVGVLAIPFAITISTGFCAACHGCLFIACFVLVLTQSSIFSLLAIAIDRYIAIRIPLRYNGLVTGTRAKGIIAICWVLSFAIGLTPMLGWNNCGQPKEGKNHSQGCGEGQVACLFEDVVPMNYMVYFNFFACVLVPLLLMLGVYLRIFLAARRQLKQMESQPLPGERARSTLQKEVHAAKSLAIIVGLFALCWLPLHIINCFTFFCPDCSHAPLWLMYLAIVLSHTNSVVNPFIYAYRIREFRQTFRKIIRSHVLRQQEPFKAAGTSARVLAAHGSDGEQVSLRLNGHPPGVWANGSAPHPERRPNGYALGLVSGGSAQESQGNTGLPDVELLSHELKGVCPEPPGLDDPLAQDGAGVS

CC1(F)CCCN(CCc2nc3c4ccc5c(c4nc(N)n3n2)OC(F)(F)O5)C1 (single isomer, unassigned) [Example 64, (R or S)-2,2-difluoro-8-[2-(3-fluoro-3-methylpiperidin-1-yl)ethyl][1,3] dioxolo[4,5-h][1,2,4]triazolo[1,5-c] quinazolin-5-amine]
Ki: 7.7 nM

CC1(F)CCCN(CCc2nc3c4ccc5c(c4nc(N)n3n2)OC(F)(F)O5)C1 (single isomer, unassigned) [Example 65, (R or S)-2,2-difluoro-8-[2-(3-fluoro-3-methylpiperidin-1-yl)ethyl][1,3] dioxolo[4,5-h][1,2,4]triazolo[1,5-c] quinazolin-5-amine]
Ki: 4.2 nM

Nc1nc2c3c(ccc2c2nc(CCN4CC5CC4C(F)(F)C5)nn12)OC(F)(F)O3 (single isomer, unassigned) [Example 66, (R or S)-8-[2-(6,6-difluoro-2-azabicyclo[2.2.1]hept-2-yl)ethyl]-2,2-difluoro[1,3]dioxolo[4,5-h][1,2,4] triazolo[1,5-c]quinazolin-5-amine]
Ki: 3 nM

Nc1nc2c3c(ccc2c2nc(CCN4CC5CC4C(F)(F)C5)nn12)OC(F)(F)O3 (single isomer, unassigned) [Example 67, (R or S)-8-[2-(6,6-difluoro-2-azabicyclo[2.2.1]hept-2-yl)ethyl]-2,2-difluoro[1,3]dioxolo[4,5-h][1,2,4] triazolo[1,5-c]quinazolin-5-amine]
Ki: 3.5 nM

CC1N(CCc2nc3c4ccc5c(c4nc(N)n3n2)OC(F)(F)O5)CCCC1(F)F (single isomer, unassigned) [Example 68, (R or S)-8-[2-(3,3-difluoro-2-methylpiperidin-1-yl)ethyl]-2,2-difluoro[1,3]dioxolo[4,5-h][1,2,4] triazolo[1,5-c]quinazolin-5-amine]
Ki: 1.2 nM

CC1N(CCc2nc3c4ccc5c(c4nc(N)n3n2)OC(F)(F)O5)CCCC1(F)F (single isomer, unassigned) [Example 69, (R or S)-8-[2-(3,3-difluoro-2-methylpiperidin-1-yl)ethyl]-2,2-difluoro[1,3]dioxolo[4,5-h][1,2,4] triazolo[1,5-c]quinazolin-5-amine]
Ki: 1.8 nM

Nc1nc2c3c(ccc2c2nc(CCN4CCCC(O)(C(F)(F)F)C4)nn12)OC(F)(F)O3 (single isomer, unassigned) [Example 70, (R or S)-1-(2-(5-amino-2,2-difluoro-[1,3]dioxolo[4,5-h][1,2,4]triazolo[1,5-c]quinazolin-8-yl)ethyl)-3-(trifluoromethyl)piperidin-3-ol]
Ki: 5.2 nM

Nc1nc2c3c(ccc2c2nc(CCN4CCCC(O)(C(F)(F)F)C4)nn12)OC(F)(F)O3 (single isomer, unassigned) [Example 71, (R or S)-1-(2-(5-amino-2,2-difluoro-[1,3]dioxolo[4,5-h][1,2,4]triazolo[1,5-c]quinazolin-8-yl)ethyl)-3-(trifluoromethyl)piperidin-3-ol]
Ki: 3.9 nM

Nc1nc2c3c(ccc2c2nc(CCN4CCCC(F)(C(F)(F)F)C4)nn12)OC(F)(F)O3 (single isomer, unassigned) [Example 72, (R or S)-2,2-difluoro-8-(2-(3-fluoro-3-(trifluoromethyl)piperidin-1-yl)ethyl)-[1,3]dioxolo[4,5-h][1,2,4]triazolo[1,5-c]quinazolin-5-amine]
Ki: 0.9 nM

Nc1nc2c3c(ccc2c2nc(CCN4CCCC(F)(C(F)(F)F)C4)nn12)OC(F)(F)O3 (single isomer, unassigned) [Example 73, (R or S)-2,2-difluoro-8-(2-(3-fluoro-3-(trifluoromethyl)piperidin-1-yl)ethyl)-[1,3]dioxolo[4,5-h][1,2,4]triazolo[1,5-c]quinazolin-5-amine]
Ki: 0.9 nM

C[C@H](Cc1nc2c3ccc4c(c3nc(N)n2n1)OC(F)(F)O4)N1CCCC(C)(F)C1 (single isomer, unassigned) [Example 85, 2,2-difluoro-8-{(2R)-2-[(3R or 3S)-3-fluoro-3-methylpiperidin-1-yl]propyl}[1,3]dioxolo[4,5-h][1,2,4]triazolo[1,5-c]quinazolin-5-amine]
Ki: 12 nM

C[C@H](Cc1nc2c3ccc4c(c3nc(N)n2n1)OC(F)(F)O4)N1CCCC(C)(F)C1 (single isomer, unassigned) [Example 86, 2,2-difluoro-8-{(2R)-2-[(3R or 3S)-3-fluoro-3-methylpiperidin-1-yl]propyl}[1,3]dioxolo[4,5-h][1,2,4]triazolo[1,5-c]quinazolin-5-amine]
Ki: 16 nM

C[C@@H](Cc1nc2c3ccc4c(c3nc(N)n2n1)OC(F)(F)O4)N1CCCC(C)(F)C1 (single isomer, unassigned) [Example 89, 2,2-difluoro-8-{(2S)-2-[(3R or 3S)-3-fluoro-3-methylpiperidin-1-yl]propyl}[1,3] dioxolo[4,5-h] [1,2,4]triazolo[1,5-c]quinazolin-5-amine]
Ki: 6.1 nM

C[C@@H](Cc1nc2c3ccc4c(c3nc(N)n2n1)OC(F)(F)O4)N1CCCC(C)(F)C1 (single isomer, unassigned) [Example 90, 2,2-difluoro-8-{(2S)-2-[(3R or 3S)-3-fluoro-3-methylpiperidin-1-yl]propyl}[1,3] dioxolo[4,5-h] [1,2,4]triazolo[1,5-c]quinazolin-5-amine]
Ki: 12 nM

CC(Cc1nc2c3ccc4c(c3nc(N)n2n1)OC(F)(F)O4)N1Cc2cccnc2C1 (single isomer, unassigned) [Example 91, 8-[(2R or 2S)-2-(5,7-dihydro-6H-pyrrolo[3,4-b]pyridin-6-yl)propyl]-2,2-difluoro[1,3]dioxolo[4,5-h][1,2,4]triazolo[1,5-c]quinazolin-5-amine]
Ki: 1.2 nM

CC(Cc1nc2c3ccc4c(c3nc(N)n2n1)OC(F)(F)O4)N1Cc2cccnc2C1 (single isomer, unassigned) [Example 92, 8-[(2R or 2S)-2-(5,7-dihydro-6H-pyrrolo[3,4-b]pyridin-6-yl)propyl]-2,2-difluoro[1,3]dioxolo[4,5-h][1,2,4]triazolo[1,5-c]quinazolin-5-amine]
Ki: 4 nM

CC(Cc1nc2c3ccc4c(c3nc(N)n2n1)OC(F)(F)O4)N1CC(F)(F)C1 (single isomer, unassigned) [Example 93, (R or S)-8-[2-(3,3-difluoroazetidin-1-yl)propyl]-2,2-difluoro[1,3] dioxolo[4,5-h][1,2,4]triazolo[1,5-c] quinazolin-5-amine]
Ki: 4.8 nM

CC(Cc1nc2c3ccc4c(c3nc(N)n2n1)OC(F)(F)O4)N1CC(F)(F)C1 (single isomer, unassigned) [Example 94, (R or S)-8-[2-(3,3-difluoroazetidin-1-yl)propyl]-2,2-difluoro[1,3] dioxolo[4,5-h][1,2,4]triazolo[1,5-c] quinazolin-5-amine]
Ki: 4.1 nM

CC(Cc1nc2c3ccc4c(c3nc(N)n2n1)OC(F)(F)O4)N1CCCC(F)(F)C1 (single isomer, unassigned) [Example 95, (R or S)-8-[2-(3,3-difluoropiperidin-1-yl)propyl]-2,2-difluoro[1,3] dioxolo[4,5-h][1,2,4]triazolo[1,5-c] quinazolin-5-amine]
Ki: 4.3 nM

CC(Cc1nc2c3ccc4c(c3nc(N)n2n1)OC(F)(F)O4)N1CCCC(F)(F)C1 (single isomer, unassigned) [Example 96, (R or S)-8-[2-(3,3-difluoropiperidin-1-yl)propyl]-2,2-difluoro[1,3] dioxolo[4,5-h][1,2,4]triazolo[1,5-c] quinazolin-5-amine]
Ki: 4.1 nM
